In patent publication US20200397855A1, “MODULATION OF PLA2-G1B IN THERAPY” (priority 2018, published 2020):

Assays:
[1] = tested on: pSTAT5 NT in CD4 T cells stimulated with IL-7; test: PLA2-GIB bioassay on CD4 T cells: pSTAT5 nuclear translocation in response to IL-7 (confocal microscopy); assay type: cell-based, human; conditions: for effect on nuclear translocation of phosphoSTAT5 (pSTAT5 NT) induced by IL-7: buffer, FIG. 1A; for pSTAT5 NT in response to IL-7: FIG. 2
From the text: Purification of Human CD4 T-lymphocytes—Venous blood was obtained from healthy volunteers through the EFS (Etablissement Francais du Sang, Centre Necker-Cabanel, Paris). CD4 T-cells were purified from whole blood using RosetteSep Human CD4+ T cell Enrichment Cocktail (Stem Cell, 15062). This cocktail contains mouse and rat monoclonal antibodies purified from mouse ascites fluid or hybridoma culture supernatant, by affinity chromatography using protein A or Protein G sepharose. These antibodies are bound in bispecific tetrameric antibody complexes which are directed against cell surface antigens on human hematopoietic cells (CD8, CD16, CD19, CD36, CD56 CD66b, TCRγ/δ) and glycophorin A on red blood cells. The rosetteSep antibody cocktail crosslinks unwanted cells in human whole blood to multiple red blood cells, forming immunorosettes. This increases the density of unwanted cells, such that they pellet along with the free red blood cells when centrifuged over a buoyant density medium such as lymphocytes separation medium (Eurobio, CMSMSL01-01).
Whole blood was incubated with RosetteSep Human CD4+ T cell Enrichment Cocktail at 50 μl/ml for 20 minutes at room temperature under gentle shaking (100 rpm), diluted with an equal volume of PBS+2% foetal bovine serum (FBS) and mixed gently. The diluted samples were centrifuged 20 minutes at 1200×g on top of lymphocytes separation medium. The enriched cells were then collected from the density medium at plasma interface and washed twice with PBS+2% FBS. Cells were subsequently resuspended in RPMI 1640 medium (Lonza) supplemented with 5% FBS, 50 mM HEPES pH 7.4, glutamine, penicillin, streptomycin and fungizone (complete medium), counted with a Moxi Z mini automated cell counter (ORFLO, MXZ000). Cells suspension was adjusted at 7×10^6 cells/ml and equilibrated at least 2 h at 37° C. in a 5% CO2 humidified atmosphere.

[2] = tested on: PLA2-GIB activity on the membrane of Jurkat E6.1 T cells; test: PLA2-GIB enzymatic assay on [3H] arachidonic acid labelled Jurkat E6.1 T cells; assay type: cell-based, human; conditions: for PLA2-GIB activity vs scrambled PEP3: pretreatment 21 h
Description: (§1) Jurkat E6.1 T cells (ECACC 88042803) or gC1qR KO Jurkat E6.1 T cells were incubated for 17 h at 5×10^5 cells/ml with 1 μCi/ml of arachidonic acid [5,6,8,9,11,14,15-^3H(N)] (Perkin Elmer, NET298Z250UC) in RPMI 1640 medium (Lonza) supplemented with 10% FBS, 50 mM HEPES pH 7.4, glutamine, penicillin, streptomycin and fungizone at 2 ml/well in 6-well plates at 37° C. in a 5% CO2 humidified atmosphere. Cells were washed twice with RPMI with 10% FBS by centrifugation at 300×g for 10 minutes at room temperature and then frozen in 90% FBS 10% DMSO at 10^7 cells/ml/vial at −80° C. Percent of [3H] arachidonic acid in CD4 T cells is the (1 minus ratio of [3H] arachidonic acid in the supernatant of CD4 T cells without cells (cpm/ml) on total [3H] arachidonic acid in supernatant and cells (cpm/ml).
To test PLA2-GIB activity on [3H] arachidonic acid labelled Jurkat E6.1 T lymphocytes, cells were unfrozen in 10% FBS RPMI preheated at 37° C. by centrifugation at 300×g for 10 minutes at room temperature, washed twice in 2.5% FBS RPMI, and equilibrated at 5×10^4 or 10^5 Jurkat E6.1 T cells/400 μl/well in 24-well polystyrene plates for 1 h 30 at 37° C. in a 5% CO2 humidified atmosphere. Then HCV core solution or vehicle dilution in 2.5% FBS RPMI at 5.95 μM was mixed with an equal volume of a PLA2-GIB solution at 630 nM or 2 μM 2.5% FBS RPMI and 100 μl were added per well at the same time for 2 h. For peptide treatments, cells were pretreated for 2 h, 4 h or 21 h, as indicated on figures, with 50 μl per well of peptide solutions at 110 μM or 55 μM in 2.5% FBS RPMI. Then 50 μl per well of PLA2-GIB at 630 nM or 2 μM 2.5% FBS RPMI or medium alone were added for 2 h. Cells and supernatant were collected in eppendorf tubes and centrifuged at 580×g for 10 minutes at room temperature. The [3H] arachidonic acid released in cell supernatant was quantified in 300 μl with 16 ml of Ultima gold (Perkin Elmer, 6013329) in low diffusion vials (Perkin Elmer, 6000477) on a counter (tri-Carb 2800 TR liquid scintillation analyzer, Perkin Elmer).

gC1qR = molecular target: T1, gC1qR (Homo sapiens, UniProt Q07021); test: gC1qR-peptides binding assay (ELISA); conditions: peptide coated on microplate, His-tag-gC1qR 0 to 3 μg/well, FIG. 12
T1 sequence (Q07021 74-282): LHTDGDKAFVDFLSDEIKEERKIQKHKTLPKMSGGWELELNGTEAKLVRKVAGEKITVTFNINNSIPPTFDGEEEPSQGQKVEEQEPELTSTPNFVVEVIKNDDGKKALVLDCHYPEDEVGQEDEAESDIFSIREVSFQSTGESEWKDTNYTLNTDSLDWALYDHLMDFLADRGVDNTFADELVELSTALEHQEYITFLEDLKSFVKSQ
Description: The unbound protein was removed; the wells washed 2× with TBST (20 mM Tris-HCl pH 7.5, 150 mM NaCl, and 0.05% Tween-20) and the unreacted sites blocked by incubation (30 min, room temp) with 300 μl of 3% BSA in TBST. After washing (2× with TBST), the microtiter plate bound peptides was incubated (2 h, room temp.) with different amount of His-tag-gC1qR ranging from 0 to 3 μg/well in triplicate. After washing (5 times with TBST), 100 μl of anti-His tag-HRP antibody (1:1000; 71840-3, Merck) in 3% BSA in TBST was added per well and incubated for 2 h at room temperature. Microplates wells were then washed (5 times with TBST) and 100 μl of TMB ELISA substrate standard solution (UP664781, Interchim) was added per well. Reaction was stopped with 100 μl per well of a H2SO4 solution at 0.16M and OD at 450 nm was measured on a microplate reader (Tecan Infinite M1000 Pro).

[3] = tested on: PLA2-GIB enzymatic activity on CD4 T cells membranes; test: PLA2-GIB enzymatic assay on [3H] arachidonic acid labelled CD4 T cells; assay type: cell-based, human
Description: as §1, with “PLA2-GIB enzymatic assay on [3H] arachidonic acid labelled CD4 T cells or Jurkat” for “Jurkat”, “cells—Purified CD4 T-cells” for “cells (ECACC 88042803) or gC1qR KO Jurkat E6.1 T cells”, “16” for “17”, “2×10^6” for “5×10^5”, “580×g” for “300×g”
To test PLA2-GIB activity on [3H] arachidonic acid labelled CD4 T lymphocytes, cells were unfrozen in 10% FBS RPMI preheated at 37° C. by centrifugation at 580×g for 10 minutes at room temperature, washed twice in 2.5% FBS RPMI, and equilibrated at 2×10^5 CD4 T cells/400 μl/well in 24-well polystyrene plates for 1 h 30 at 37° C. in a 5% CO2 humidified atmosphere. […] Cells and supernatant were collected in eppendorf tubes and centrifuged at 580×g for 10 minutes at room temperature. The [3H] arachidonic acid released in cell supernatant was quantified in 300 μl with 16 ml of Ultima gold (Perkin Elmer, 6013329) in low diffusion vials (Perkin Elmer, 6000477) on a counter (tri-Carb 2800 TR liquid scintillation analyzer, Perkin Elmer).
To study PLA2-GIB effect on CD4 T cells membranes we developed a new enzymatic assay in which CD4 T cells are labelled with [3H] arachidonic acid. When these cells are exposed to PLA2-GIB the enzymatic activity on CD4 T cells releases [3H] arachidonic acid. The quantification of [3H] arachidonic acid allowed us to quantify PLA2-GIB activity.

[4] = peptide alone, without PLA2-GIB, FIG. 5B

In the case of “C1q: Complement component C1q from human serum (Sigma C1740), natural ligand of gC1qR”, the “inhibition of pSTAT5 NT” value ([1]; C1q (10 μg/ml) with 5 nM PLA2-GIB, FIG. 6A) is reported as 75-85% and the “inhibition of pSTAT5 NT” value ([1]; C1q alone (10 μg/ml), FIG. 6A) is reported as 40%.

For “NH2-PWNASWSNKSLDDIW-COOH (H-PWNASWSNKSLDDIW-OH) [PEP3]”, the “inhibition of pSTAT5 NT” value ([1]; 0.025 μg/ml PEP3 with 5 nM PLA2-GIB, FIG. 5B) was 18%, the “inhibition of pSTAT5 NT” value ([1]; 0.5 μg/ml PEP3 alone, n=3 donors, FIG. 5C) was 5% and the “inhibition of pSTAT5 NT” value ([1]; 2.5 μg/ml PEP3 with 5 nM PLA2-GIB, FIG. 5B) was 51%. The “effect on pSTAT5 NT” value [1, 4] was “no effect”, the “PLA2-GIB activity vs scrambled PEP3” value ([2]; WT Jurkat E6.1 cells, FIG. 13) was “increased significantly” and the “PLA2-GIB activity on the membrane of Jurkat E6.1 T cells vs scrambled PEP3” value ([2]; pretreatment 4 h or more, peptide 11 μM, 200 nM PLA2-GIB, FIG. 11) was “significantly increased”. For the same molecule, the “binding to gC1qR” value (gC1qR) was “binds to gC1qR”.

For “NH2-PWNATWTQRTLDDIW-COOH (H-PWNATWTQRTLDDIW-OH) [CTL peptide, control peptide (CTL), reference compound]”, the “effect on pSTAT5 NT” value [1, 4] was “no effect”, the “effect on pSTAT5 NT” value ([1]; peptide with 5 nM PLA2-GIB, FIG. 5B) was “no effect” and the “binding to gC1qR” value (gC1qR) was “essentially do not”.

“NH2-SGEGGWSNGSLVDIM-COOH (H-SGEGGWSNGSLVDIM-OH) [HP Pg]” was tested, and the “PLA2-GIB activity vs scrambled PEP3” value ([2]; 200 nM PLA2-GIB, FIG. 15) was “significantly increased”.

With “NH2-WNWDSKILSDPAWNS-COOH (H-WNWDSKILSDPAWNS-OH) [Scrambled PEP3, Scrambled PEP3 control peptide]” the “binding to gC1qR” value (gC1qR) was “essentially do not”.

With “PLA2-GIB: Recombinant human group IB pancreatic phospholipase A2, produced in E. coli or CHO-S (SEQ ID NO: 1)” the “effect on nuclear translocation of phosphoSTAT5 (pSTAT5 NT) induced by IL-7” value ([1]; 5 nM PLA2-GIB alone) was “does not affect”, the “pSTAT5 NT in response to IL-7” value ([1]; 5 nM PLA2-GIB, compared with no PLA2-GIB) was “biologically similar” and the “inhibition of pSTAT5 NT” value ([1]; 75 nM PLA2-GIB alone, FIG. 4) was 49%. The “effect on nuclear translocation of phosphoSTAT5 (pSTAT5 NT) induced by IL-7” value ([1]; 75 nM PLA2-GIB alone) was “significantly decreases”, the “pSTAT5 NT in response to IL-7” value ([1]; 75 nM PLA2-GIB) was 50% and the “inhibition of pSTAT5 NT” value ([1]; 250 nM PLA2-GIB alone, FIG. 4) was 79%. For the same molecule, the “pSTAT5 NT in response to IL-7” value ([1]; 250 nM PLA2-GIB) was 10%.

B1: HCV core protein: Recombinant HCV core protein (Prospec HCV-011), SEQ ID NO: 43 (protein)
chain: MSTNPKPQRKTKRNTIRRPQDVKFPGGGQIVGGVYLLPRRGPRLGVRATRKTSERSQPRGRRQPIPKARRPEGRTWAQPGYPWPLYGNEGMGWAGWLLSPRGSRPSWGPTDPRRRSRNLGKVIDTLTCGFADLMGYVPLVGAPLGGAARALAHGVRALEDGVNYATGNLPGCSFSISLWXLLSCLTIPASA
modifications: not fully specified; X: residue not identified in the source
For B1, the “release of [3H] arachidonic acids by CD4 T cells” value ([3]; 10 μg/ml HCV core protein alone, FIG. 8B) was “slightly and significantly increases”, the “fold increase of PLA2-GIB activity” value ([3]; 10 μg/ml HCV core protein, 63 nM PLA2-GIB, FIG. 8A) was 26 fold and the “fold increase of PLA2-GIB activity” value ([3]; 10 μg/ml HCV core protein, 63 nM PLA2-GIB, n=3 donors, FIG. 8B) was 26 fold. For the same molecule, the “fold increase of PLA2-GIB activity” value ([3]; 10 μg/ml HCV core protein, 200 nM PLA2-GIB, FIG. 8A) was 16 fold, the “fold increase of PLA2-GIB activity” value ([3]; 10 μg/ml HCV core protein, 200 nM PLA2-GIB, n=3 donors, FIG. 8B) was 16 fold and the “fold increase of PLA2-GIB activity” value ([3]; 20 μg/ml HCV core protein, 63 nM PLA2-GIB, FIG. 8A) was 36 fold. For the same molecule, the “fold increase of PLA2-GIB activity” value ([3]; 20 μg/ml HCV core protein, 200 nM PLA2-GIB, FIG. 8A) was 26 fold, the “release of [3H] arachidonic acids by CD4 T cells” value ([3]; HCV core protein alone at 10 and 20 μg/ml, FIG. 8A) was “slightly induces” and the “PLA2-GIB activity on the membrane of Jurkat E6.1 T cells” value ([2]; HCV core 595 nM (10 μg/ml), FIG. 14) was “significantly increased”.
